Data as given in US10030020B2, “Spirocycle compounds and methods of making and using same” (Abide Therapeutics, Inc., priority 2016, dated 2018).

Assays:
Format in all cases: biochemical
ABHD6 = ABHD6 (Mus musculus (Mouse), UniProt Q8R2Y0); test: In vitro competitive activity-based protein profiling (mouse brain membrane fraction or cell lysates), ABHD6 band; settings: mouse proteome; for inhibition at 1 µM: read-out: ABHD6 % Inh 1 μM (mouse); for IC50: competitive ABPP
Procedure, shortened: (§1)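 Mouse proteome samples (brain membrane fraction or cell lysate, 1.0 mg/mL protein) were pretreated with varying inhibitor concentrations and subsequently probed with fluorophosphonate-rhodamine, each step lasting 30 min at 37° C. Labelled proteins were separated by SDS-PAGE, and band fluorescence was imaged and quantified.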

MAGL = MAGL (Mus musculus (Mouse), UniProt O35678); test: In vitro competitive activity-based protein profiling (mouse brain membrane fraction or cell lysates), MAGL band; settings: mouse proteome; for inhibition at 1 µM: read-out: MAGL % Inh 1 μM (mouse); for IC50: competitive ABPP
Description: In Vitro Competitive Activity-Based Protein Profiling.
Proteomes (mouse brain membrane fraction or cell lysates) (50 μL, 1.0 mg/mL total protein concentration) were preincubated with varying concentrations of inhibitors at 37° C. After 30 min, FP—Rh (1.0 μL, 50 μM in DMSO) was added and the mixture was incubated for another 30 min at 37° C. Reactions were quenched with SDS loading buffer (50 μL-4×) and run on SDS-PAGE.

FAAH = FAAH (Mus musculus (Mouse), UniProt O08914); test: In vitro competitive activity-based protein profiling (mouse brain membrane fraction or cell lysates), FAAH band; settings: mouse proteome; for inhibition at 1 µM: read-out: FAAH % Inh 1 μM (mouse); for IC50: competitive ABPP
Procedure, shortened: as §1

Chain of MAGL (O35678 whole entry): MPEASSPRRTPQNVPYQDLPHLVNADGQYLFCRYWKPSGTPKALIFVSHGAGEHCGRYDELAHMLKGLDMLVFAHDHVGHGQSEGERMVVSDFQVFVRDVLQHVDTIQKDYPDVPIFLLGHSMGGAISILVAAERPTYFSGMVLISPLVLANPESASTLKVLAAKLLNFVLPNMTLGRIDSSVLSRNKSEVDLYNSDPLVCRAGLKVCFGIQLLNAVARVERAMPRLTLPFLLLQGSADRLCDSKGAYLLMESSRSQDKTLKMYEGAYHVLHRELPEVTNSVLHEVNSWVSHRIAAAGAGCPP
Chain of ABHD6 (Q8R2Y0 whole entry): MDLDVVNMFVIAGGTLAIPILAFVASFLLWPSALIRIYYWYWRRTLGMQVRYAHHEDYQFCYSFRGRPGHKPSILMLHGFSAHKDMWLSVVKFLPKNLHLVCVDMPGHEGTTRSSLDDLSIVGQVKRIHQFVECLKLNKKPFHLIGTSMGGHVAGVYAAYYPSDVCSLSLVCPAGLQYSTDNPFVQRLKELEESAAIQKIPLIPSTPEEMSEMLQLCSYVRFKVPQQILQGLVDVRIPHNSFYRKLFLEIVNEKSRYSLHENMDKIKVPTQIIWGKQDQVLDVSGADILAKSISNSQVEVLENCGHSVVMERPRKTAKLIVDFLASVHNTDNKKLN
Chain of FAAH (O08914 whole entry): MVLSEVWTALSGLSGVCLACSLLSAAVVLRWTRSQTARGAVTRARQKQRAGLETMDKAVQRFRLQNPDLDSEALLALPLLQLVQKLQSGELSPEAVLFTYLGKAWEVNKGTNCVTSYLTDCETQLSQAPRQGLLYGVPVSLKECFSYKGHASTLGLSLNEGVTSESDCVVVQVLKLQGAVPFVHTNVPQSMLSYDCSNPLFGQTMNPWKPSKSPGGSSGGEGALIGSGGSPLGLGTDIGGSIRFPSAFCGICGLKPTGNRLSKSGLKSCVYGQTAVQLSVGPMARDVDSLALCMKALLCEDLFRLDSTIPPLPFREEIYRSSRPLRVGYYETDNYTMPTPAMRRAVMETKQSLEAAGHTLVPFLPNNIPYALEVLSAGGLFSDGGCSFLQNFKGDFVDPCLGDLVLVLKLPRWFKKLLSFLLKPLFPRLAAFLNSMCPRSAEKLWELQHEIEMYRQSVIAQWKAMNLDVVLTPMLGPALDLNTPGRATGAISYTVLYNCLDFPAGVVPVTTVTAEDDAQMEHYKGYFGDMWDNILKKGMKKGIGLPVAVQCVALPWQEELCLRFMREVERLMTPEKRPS

SMILES | inhibition at 1 µM (ABHD6) [%] | IC50 (ABHD6) [nM] | inhibition at 1 µM (MAGL) [%] | IC50 (MAGL) [nM] | inhibition at 1 µM (FAAH) [%] | IC50 (FAAH) [nM]
O=C(OC(C(F)(F)F)C(F)(F)F)N1CCC2(CCN(Cc3ccc(N4CCCC4)c(C(F)(F)F)c3)C2)CC1 [Example 141, 1,1,1,3,3,3-Hexafluoropropan-2-yl 2-(4-(pyrrolidin-1-yl)-3-(trifluoromethyl)benzyl)-2,8-diazaspiro[4.5]decane-8-carboxylate] | ≥ 75 | 100 to 1000 | > 75 | 100 to 1000 | < 25 | > 1000
CC(=O)N1CCCc2cccc(CN3CCCC34CCN(C(=O)OC(C(F)(F)F)C(F)(F)F)CC4)c21 [Example 142, 1,1,1,3,3,3-Hexafluoropropan-2-yl 1-((1-acetyl-1,2,3,4-tetrahydroquinolin-8-yl)methyl)-1,8-diazaspiro[4.5]decane-8-carboxylate] | < 25 | > 1000 | > 75 | 100 to 1000 | < 25 | > 1000
CS(=O)(=O)N1CCCc2cccc(CN3CCCC34CCN(C(=O)OC(C(F)(F)F)C(F)(F)F)CC4)c21 [Example 143, 1,1,1,3,3,3-Hexafluoropropan-2-yl 1-((1-methanesulfonyl-1,2,3,4-tetrahydroquinolin-8-yl)methyl)-1,8-diazaspiro[4.5]decane-8-carboxylate] | < 25 | > 1000 | > 75 | < 100 | < 25 | > 1000
CCN1CCc2cccc(CN3CCCC34CCN(C(=O)OC(C(F)(F)F)C(F)(F)F)CC4)c2C1 [Example 144, 1,1,1,3,3,3-Hexafluoropropan-2-yl 1-((2-ethyl-1,2,3,4-tetrahydroisoquinolin-8-yl)methyl)-1,8-diazaspiro[4.5]decane-8-carboxylate] | 25 to 75 | > 1000 | > 75 | 100 to 1000 | < 25 | > 1000
CC(=O)N1CCc2cccc(CN3CCCC34CCN(C(=O)OC(C(F)(F)F)C(F)(F)F)CC4)c2C1 [Example 145, 1,1,1,3,3,3-Hexafluoropropan-2-yl 1-((2-acetyl-1,2,3,4-tetrahydroisoquinolin-8-yl)methyl)-1,8-diazaspiro[4.5]decane-8-carboxylate] | < 25 | > 1000 | > 75 | < 100 | < 25 | > 1000
CC(C)N1CCc2cccc(CN3CCCC34CCN(C(=O)OC(C(F)(F)F)C(F)(F)F)CC4)c2C1 [Example 147, 1,1,1,3,3,3-Hexafluoropropan-2-yl 1-((2-isopropyl-1,2,3,4-tetrahydroisoquinolin-8-yl)methyl)-1,8-diazaspiro[4.5]decane-8-carboxylate] | < 25 | > 1000 | > 75 | 100 to 1000 | < 25 | > 1000
O=C(OC(C(F)(F)F)C(F)(F)F)N1CCC2(CCCN2Cc2cccc3c2CN(C2CC2)CC3)CC1 [Example 148, 1,1,1,3,3,3-Hexafluoropropan-2-yl 1-((2-cyclopropyl-1,2,3,4-tetrahydroisoquinolin-8-yl)methyl)-1,8-diazaspiro[4.5]decane-8-carboxylate] | < 25 | > 1000 | > 75 | < 100 | < 25 | > 1000
CC(C)CN1CCc2cccc(CN3CCCC34CCN(C(=O)OC(C(F)(F)F)C(F)(F)F)CC4)c2C1 [Example 149, 1,1,1,3,3,3-Hexafluoropropan-2-yl 1-((2-(2-methylpropyl)-1,2,3,4-tetrahydroisoquinolin-8-yl)methyl)-1,8-diazaspiro[4.5]decane-8-carboxylate] | 25 to 75 | > 1000 | > 75 | 100 to 1000 | < 25 | > 1000
O=C(OC(C(F)(F)F)C(F)(F)F)N1CCC2(CCN(Cc3ccc4c(c3)COC4)C2)CC1 [Example 153, 1,1,1,3,3,3-Hexafluoropropan-2-yl 2-((1,3-dihydroisobenzofuran-5-yl)methyl)-2,8-diazaspiro[4.5]decane-8-carboxylate] | ≥ 75 | < 100 | > 75 | 100 to 1000 | < 25 | > 1000
O=C(OC(C(F)(F)F)C(F)(F)F)N1CCC2(CCN(Cc3ccc(Cl)c(N4CCOCC4)c3)C2)CC1 [Example 154, 1,1,1,3,3,3-Hexafluoropropan-2-yl 2-(4-chloro-3-morpholinobenzyl)-2,8-diazaspiro[4.5]decane-8-carboxylate] | ≥ 75 | 100 to 1000 | > 75 | < 100 | < 25 | > 1000
O=C(OC(C(F)(F)F)C(F)(F)F)N1CCC2(CCN(Cc3ccc(Cl)c(N4CCCC4)c3)C2)CC1 [Example 155, 1,1,1,3,3,3-Hexafluoropropan-2-yl 2-(4-chloro-3-(pyrrolidin-1-yl)benzyl)-2,8-diazaspiro[4.5]decane-8-carboxylate] | ≥ 75 | 100 to 1000 | > 75 | < 100 | < 25 | > 1000
O=C(OC(C(F)(F)F)C(F)(F)F)N1CCC2(CCN(Cc3ccc(C(F)(F)F)c(N4CCOCC4)c3)C2)CC1 [Example 156, 1,1,1,3,3,3-Hexafluoropropan-2-yl 2-(3-morpholino-4-(trifluoromethyl)benzyl)-2,8-diazaspiro[4.5]decane-8-carboxylate] | ≥ 75 | 100 to 1000 | > 75 | < 100 | < 25 | > 1000
CCN1CCCc2cccc(CN3CCCC34CCN(C(=O)OC(C(F)(F)F)C(F)(F)F)CC4)c21 [Example 158, 1,1,1,3,3,3-Hexafluoropropan-2-yl 1-((1-ethyl-1,2,3,4-tetrahydroquinolin-8-yl)methyl)-1,8-diazaspiro[4.5]decane-8-carboxylate] | < 25 | > 1000 | > 75 | 100 to 1000 | < 25 | > 1000
CCN1CCc2cccc(CN3CCC4(CCN(C(=O)OC(C(F)(F)F)C(F)(F)F)CC4)C3)c2C1 [Example 159, 1,1,1,3,3,3-Hexafluoropropan-2-yl 2-((2-ethyl-1,2,3,4-tetrahydroisoquinolin-8-yl)methyl)-2,8-diazaspiro[4.5]decane-8-carboxylate] | ≥ 75 | > 1000 | > 75 | < 100 | < 25 | > 1000
CC(=O)N1CCc2cccc(CN3CCC4(CCN(C(=O)OC(C(F)(F)F)C(F)(F)F)CC4)C3)c2C1 [Example 160, 1,1,1,3,3,3-Hexafluoropropan-2-yl 2-((2-acetyl-1,2,3,4-tetrahydroisoquinolin-8-yl)methyl)-2,8-diazaspiro[4.5]decane-8-carboxylate] | ≥ 75 | < 100 | > 75 | < 100 | < 25 | > 1000
CS(=O)(=O)N1CCc2cccc(CN3CCC4(CCN(C(=O)OC(C(F)(F)F)C(F)(F)F)CC4)C3)c2C1 [Example 161, 1,1,1,3,3,3-hexafluoropropan-2-yl 2-((2-(methylsulfonyl)-1,2,3,4-tetrahydroisoquinolin-8-yl)methyl)-2,8-diazaspiro[4.5]decane-8-carboxylate] | ≥ 75 | < 100 | > 75 | < 100 | < 25 | > 1000
CC(C)N1CCc2cccc(CN3CCC4(CCN(C(=O)OC(C(F)(F)F)C(F)(F)F)CC4)C3)c2C1 [Example 162, 1,1,1,3,3,3-Hexafluoropropan-2-yl 2-((2-isopropyl-1,2,3,4-tetrahydroisoquinolin-8-yl)methyl)-2,8-diazaspiro[4.5]decane-8-carboxylate] | ≥ 75 | 100 to 1000 | > 75 | < 100 | < 25 | > 1000
O=C(OC(C(F)(F)F)C(F)(F)F)N1CCC2(CCN(Cc3cccc4c3CN(C3CC3)CC4)C2)CC1 [Example 163, 1,1,1,3,3,3-Hexafluoropropan-2-yl 2-((2-cyclopropyl-1,2,3,4-tetrahydroisoquinolin-8-yl)methyl)-2,8-diazaspiro[4.5]decane-8-carboxylate] | 25 to 75 | 100 to 1000 | > 75 | < 100 | < 25 | > 1000
CC(C)CN1CCc2cccc(CN3CCC4(CCN(C(=O)OC(C(F)(F)F)C(F)(F)F)CC4)C3)c2C1 [Example 164, 1,1,1,3,3,3-Hexafluoropropan-2-yl 2-((2-isobutyl-1,2,3,4-tetrahydroisoquinolin-8-yl)methyl)-2,8-diazaspiro[4.5]decane-8-carboxylate] | ≥ 75 | 100 to 1000 | > 75 | < 100 | < 25 | > 1000
